These compounds were tested against T1, human CRTH2 (Homo sapiens, UniProt Q9Y5Y4) (assay: Human CRTH2 Receptor Binding Assay (whole cell, [3H]ramatroban competition)). Conditions: CHO-K1 cells expressing human CRTH2 and G-alpha16; 20 nM [3H]ramatroban; 1 hour, room temperature.
T1 construct: expressed in transfected cells; host or cells: CHO-K1
T1 sequence (Q9Y5Y4 1-395): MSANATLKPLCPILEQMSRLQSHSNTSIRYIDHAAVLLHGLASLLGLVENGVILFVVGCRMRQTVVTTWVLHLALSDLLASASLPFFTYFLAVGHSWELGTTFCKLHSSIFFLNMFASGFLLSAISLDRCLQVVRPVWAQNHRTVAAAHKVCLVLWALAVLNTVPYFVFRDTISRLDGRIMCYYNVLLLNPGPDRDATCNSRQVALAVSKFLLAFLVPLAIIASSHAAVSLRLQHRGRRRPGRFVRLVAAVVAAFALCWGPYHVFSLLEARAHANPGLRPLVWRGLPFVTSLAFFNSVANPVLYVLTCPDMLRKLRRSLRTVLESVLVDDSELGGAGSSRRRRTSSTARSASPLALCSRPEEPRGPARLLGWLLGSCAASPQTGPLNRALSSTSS
From the text: A whole cell receptor binding assay using [^3H]ramatroban as the competing radioactive ligand was employed to evaluate the compound binding activity to human CRTH2. The radioactive ligand [^3H]ramatroban was synthesized according to Sugimoto et. al. (Eur. J. Pharmacol. 524, 30-37, 2005) to a specific activity of 42 Ci/mmol.
A cell line stably expressing human CRTH2 was established by transfecting CHO-K1 cells with two mammalian expression vectors that harbored human CRTH2 and G-alpha16 cDNAs, respectively, using FuGene® 6 transfection reagent (from Roche). Stable clones expressing CRTH2 were selected by staining each clone with BM16 (BD Pharmingen™ from BD Biosciences, a division of Becton, Dickinson and Company), which is a rat monoclonal antibody to human CRTH2. The cells were maintained as monolayer cultures in Ham's F-12 medium containing 10% fetal bovine serum, 100 units/mL penicillin, 100 μg/mL streptomycin, 2 mM glutamine, 0.5 mg/mL G418 (geneticin) for CRTH2, and 0.2 mg/mL hygromycin-B (for G-alpha 16). For whole cell receptor binding assay, the monolayer cells were rinsed once with PBS (phosphate buffered saline), dissociated using ethylenediaminetetraacetate (Versene™ EDTA from Lonza Inc.), and suspended in PBS containing 10 mM MgCl2 and 0.06% BSA (bovine serum albumin) at 1.5×10^6 cells/mL.
The binding reactions (0.2 mL) were performed in 96-well plates at room temperature in PBS containing 1.5×10^5 cells, 10 mM MgCl2, 0.06% BSA, 20 nM [^3H]ramatroban, and test compound at various concentrations. After 1 hour of binding reactions, the cells were harvested on GF™/B filter microplates (microtiter plates with embedded glass fiber from PerkinElmer, Inc.) and washed 5 times with PBS using a Filtermate™ Harvester (a cell harvester that harvests and washes cells from microplates from PerkinElmer, Inc.). The radioactivities bound to the cells were determined using a microplate scintillation counter (TopCount® NXT, from PerkinElmer, Inc.) after adding 50 μL of Microscint™ 20 scintillation fluid (from PerkinElmer, Inc.) to each well of the filter plates. The radioactivity from non-specific binding was determined by replacing compound with 10 μM of 15(R)-15-methyl PGD2 (from Cayman Chemical Company) in the reaction mixtures. The radioactivity bound to the cells in the absence of compound (total binding) was determined by replacing compound with 0.25% of DMSO (dimethyl sulfoxide) in the reaction mixture. Specific binding data were obtained by subtracting the radioactivity of non-specific binding from each binding data.
The IC50 value is defined as the concentration of the tested compound that is required for 50% inhibition of total specific binding. In order to calculate the IC50 value, the percent inhibition data were determined for 7 concentrations for each compound. The percent inhibition for a compound at each concentration was calculated according to the following formula, [1−(specific binding in the presence of compound)/(total specific binding)]×100. The IC50 value was then obtained by fitting the percent inhibition data to a sigmoidal dose-response (4 parameter logistic) model in the XLfit® software Excel add-in program [from ID Business Solutions Ltd., model 205, where F(x)=(A+(B−A)/(1+((C/x)^D)))].

Row | Compound | IC50
1 | CS(=O)(=O)c1ccc(Oc2cc(CC(=O)O)cc3ccc(F)cc23)cc1 [Example 1-2, [6-fluoro-4-(4-methanesulfonyl-phenoxy)-naphthalen-2-yl]-acetic acid] | 3.1 nM
2 | CCS(=O)(=O)c1cnc(Oc2c(C)c(CC(=O)O)cc3ccc(F)cc23)c(C2CC2)c1 [Example 21-1, [4-(3-Cyclopropyl-5-ethanesulfonyl-pyridin-2-yloxy)-6-fluoro-3-methyl-naphthalen-2-yl]-acetic acid] | 2.8 nM
3 | Cc1c(CC(=O)O)cc2ccc(F)cc2c1Oc1ccc(S(=O)(=O)N2CCOCC2)cc1 [Example 2-40, {6-fluoro-3-methyl-4-[4-(morpholine-4-sulfonyl)-phenoxy]-naphthalen-2-yl}-acetic acid] | 6.3 nM
4 | CCN(CC)S(=O)(=O)c1ccc(Oc2c(C)c(CC(=O)O)cc3ccc(F)cc23)cc1 [Example 2-39, [4-(4-diethylsulfamoyl-phenoxy)-6-fluoro-3-methyl-naphthalen-2-yl]-acetic acid] | 2 nM
5 | CCS(=O)(=O)c1ccc(Oc2cc(CC(=O)O)cc3ccc(OC(F)(F)F)cc23)nc1 [Example 1-18, [4-(5-Ethanesulfonyl-pyridin-2-yloxy)-6-trifluoromethoxy-naphthalen-2-yl]-acetic acid] | 2.6 nM
6 | CCS(=O)(=O)c1ccc(Oc2cc(CC(=O)O)c(C)c3ccc(F)cc23)nc1 [Example 6-1, [4-(5-ethanesulfonyl-pyridin-2-yloxy)-6-fluoro-1-methyl-naphthalen-2-yl]-acetic acid] | 32.1 nM
7 | CS(=O)(=O)c1ccc(Oc2cc(CC(=O)O)cc3ccccc23)cc1 [Example 3-1, [4-(4-methanesulfonyl-phenoxy)-naphthalen-2-yl]-acetic acid] | 12.9 nM
8 | CS(=O)(=O)c1ccc(S(=O)(=O)c2cc(CC(=O)O)cc3ccc(F)cc23)cc1 [Example 11-1, [6-fluoro-4-(4-methanesulfonyl-benzenesulfonyl)-naphthalen-2-yl]-acetic acid] | 7.7 nM
9 | C=Cc1c(CC(=O)O)cc2ccc(F)cc2c1Oc1ccc(S(=O)(=O)CC)cn1 [Example 17-1, [4-(5-Ethanesulfonyl-pyridin-2-yloxy)-6-fluoro-3-vinyl-naphthalen-2-yl]-acetic acid] | 12.4 nM
10 | Cc1cc(S(C)(=O)=O)ccc1Oc1cc(CC(=O)O)cc2ccc(F)cc12 [Example 1-6, [6-fluoro-4-(4-methanesulfonyl-2-methyl-phenoxy)-naphthalen-2-yl]-acetic acid] | 7.1 nM
11 | Cc1c(CC(=O)O)cc2ccc(F)cc2c1Oc1ncc(S(C)(=O)=O)cc1Br [Example 2-36, [4-(3-bromo-5-methanesulfonyl-pyridin-2-yloxy)-6-fluoro-3-methyl-naphthalen-2-yl]-acetic acid] | 0.02 nM
12 | CCCS(=O)(=O)c1ccc(Oc2c(C)c(CC(=O)O)cc3ccc(F)cc23)cc1 [Example 2-22, {6-fluoro-3-methyl-4-[4-(propane-1-sulfonyl)-phenoxy]-naphthalen-2-yl}-acetic acid] | 2.4 nM
13 | Cc1c(CC(=O)O)cc2ccc(F)cc2c1Oc1ccc(S(C)(=O)=O)cc1 [Example 2-2, [6-fluoro-4-(4-methanesulfonyl-phenoxy)-3-methyl-naphthalen-2-yl]-acetic acid] | 2.3 nM
14 | CCS(=O)(=O)c1ccc(Oc2c(C)c(CC(=O)O)cc3ccc(F)cc23)c(C)c1 [Example 2-10, [4-(4-ethanesulfonyl-2-methyl-phenoxy)-6-fluoro-3-methyl-naphthalen-2-yl]-acetic acid] | 7.3 nM
15 | CCS(=O)(=O)c1ccc(Oc2cc(CC(=O)O)cc3cc(F)ccc23)cc1 [Example 1-20, [4-(4-Ethanesulfonyl-phenoxy)-7-fluoro-naphthalen-2-yl]-acetic acid] | 18.1 nM
16 | CCS(=O)(=O)c1ccc(Oc2cc(CC(=O)O)c(F)c3ccc(F)cc23)nc1 [Example 4-2, [1,6-difluoro-4-(5-ethanesulfonyl-pyridin-2-yloxy)-naphthalen-2-yl]-acetic acid] | 21.3 nM
17 | Cc1c(CC(=O)O)cc2ccc(F)cc2c1Oc1ccc(S(=O)(=O)C2CC2)cc1 [Example 2-5, [4-(4-cyclopropanesulfonyl-phenoxy)-6-fluoro-3-methyl-naphthalen-2-yl]-acetic acid] | 3.5 nM
18 | CCc1c(CC(=O)O)cc2ccc(F)cc2c1Oc1ccc(S(=O)(=O)CC)cn1 [Example 19-1] | 17.5 nM
19 | O=C(O)Cc1cc(Oc2ccc(S(=O)(=O)C3CC3)cc2)c2cc(F)ccc2c1 [Example 1-5, [4-(4-cyclopropanesulfonyl-phenoxy)-6-fluoro-naphthalen-2-yl]-acetic acid] | 9.3 nM
20 | Cc1c(CC(=O)O)cc2ccc(F)cc2c1Oc1ccc(S(C)(=O)=O)c(F)c1 [Example 2-16, [6-fluoro-4-(3-fluoro-4-methanesulfonyl-phenoxy)-3-methyl-naphthalen-2-yl]-acetic acid] | 3.4 nM
21 | CS(=O)(=O)c1ccc(Nc2cc(CC(=O)O)cc3ccc(F)cc23)cc1 [Example 8-1, [6-fluoro-4-(4-methanesulfonyl-phenylamino)-naphthalen-2-yl]-acetic acid] | 3.3 nM
22 | CCS(=O)(=O)c1ccc(Oc2cc(CC(=O)O)cc3ccc(C(F)(F)F)cc23)nc1 [Example 1-16, [4-(5-Ethanesulfonyl-pyridin-2-yloxy)-6-trifluoromethyl-naphthalen-2-yl]-acetic acid] | 19.1 nM
23 | CCS(=O)(=O)c1ccc(Oc2cc(CC(=O)O)cc3ccc(F)cc23)c(C)c1 [Example 1-8, [4-(4-ethanesulfonyl-2-methyl-phenoxy)-6-fluoro-naphthalen-2-yl]-acetic acid] | 3.3 nM
24 | CS(=O)(=O)c1ccc(Oc2cc(CC(=O)O)c(F)c3ccc(F)cc23)nc1 [Example 4-1, [1,6-difluoro-4-(5-methanesulfonyl-pyridin-2-yloxy)-naphthalen-2-yl]-acetic acid] | 7.9 nM
25 | CCS(=O)(=O)c1ccc(Oc2cc(CC(=O)O)cc3cc(OC)c(OC)cc23)cc1 [Example 1-23, [4-(4-Ethanesulfonyl-phenoxy)-6,7-dimethoxy-naphthalen-2-yl]-acetic acid] | 97.3 nM
26 | CCS(=O)(=O)c1ccc(Oc2cc(CC(=O)O)cc3cccc(F)c23)cc1 [Example 1-22, [4-(4-Ethanesulfonyl-phenoxy)-5-fluoro-naphthalen-2-yl]-acetic acid] | 5.4 nM
27 | CCS(=O)(=O)c1ccc(Oc2c(C)c(CC(=O)O)cc3ccc(F)cc23)c(C#N)c1 [Example 2-18, [4-(2-cyano-4-ethanesulfonyl-phenoxy)-6-fluoro-3-methyl-naphthalen-2-yl]-acetic acid] | 1.7 nM
28 | CCS(=O)(=O)c1cnc(Oc2cc(CC(=O)O)cc3ccc(F)cc23)c(C)c1 [Example 1-12, [4-(5-ethanesulfonyl-3-methyl-pyridin-2-yloxy)-6-fluoro-naphthalen-2-yl]-acetic acid] | 2.5 nM
29 | CS(=O)(=O)c1ccc(Sc2cc(CC(=O)O)cc3ccc(F)cc23)cc1 [Example 9-1, [6-fluoro-4-(4-methanesulfonyl-phenylsulfanyl)-naphthalen-2-yl]-acetic acid] | 7.5 nM
30 | CCS(=O)(=O)c1cc(F)c(Oc2c(C)c(CC(=O)O)cc3ccc(F)cc23)cc1Cl [Example 2-24, [4-(5-chloro-4-ethanesulfonyl-2-fluoro-phenoxy)-6-fluoro-3-methyl-naphthalen-2-yl]-acetic acid] | 8.2 nM

Source: patent US8642629B2, “Naphthylacetic acids” (Hoffmann-La Roche Inc., priority 2008, dated 2014)
